Data set [1] has as its system dopaminergic neurons (TH+ neurons). The data set is described as follows: Neuroprotection: rescue of dopamine neurons from spontaneous oxidative stress in primary cultures. It is filed as cell-based. The following applies: for EC50: Neuron, rescue of dopamine neurons from spontaneous oxidative stress, determined graphically, read-out: Neuroprotection (EC 50 μM). On the procedure: In primary cultures of dopaminergic neurons, TH+ neurons suffer from oxidative stress, leading to the death of the neurons after a few days. When cultured in the presence of a positive reference (apotransferrin), the dopaminergic neurons survive. The neuroprotective effects of 10 μM of doxycycline (DOX) and of 3 μM or 5 μM of the compound of formula (Ia) according to the present invention were evaluated, compared to the effect of 100 μg/mL of apotransferrin (APO).
(§1) The properties of tetracycline derivatives, including the compound of formula (Ia) according to the present invention, were compared regarding the neuroprotection, anti-inflammatory effects, anti-aggregant activity, and antibiotic activity. The properties were evaluated as described herein above.
(§2) EC50s, IC50s determined graphically, *Rescue of dopamine neurons from spontaneous oxidative stress; ** TNF α release inhibition under LPS exposure, ^#Weak antibiotic activity on only 1 of the 3 bacterial strains (i.e. S aureus). ##Strong antibiotic activity on all 3 bacterial strains. ^###Significant antibiotic activity on two bacterial strains.

Data set [2] relates to Gram+ and Gram- bacteria (S. aureus, E. coli, E. faecalis, P. aeruginosa). The data set is described as follows: Antibiotic activity, summary over the bacterial strains (Examples 3 and 7). It is filed as cell-based. More on the design: activity against Gram+ and Gram− bacteria: dose or concentration left out as unconfirmed; key to Antibiotic activity: low: Weak antibiotic activity on only 1 of the 3 bacterial strains (i.e. S aureus); high: Strong antibiotic activity on all 3 bacterial strains; Significant antibiotic activity on two bacterial strains. On the procedure:
Bacterial strains used in this study were: S. aureus (ATCC25923), E. coli (ATCC25922), E. faecalis (ATCC29212) and P. aeruginosa (PA01). Strains were maintained at −80° C. in 15% (v/v) glycerol for cryoprotection. Bacteria were routinely grown in Mueller-Hinton (MH) broth at 37° C.
The susceptibility of bacterial strains to antibiotics and compounds was determined in microplates using the standard broth dilution method in accordance with the recommendations of the Comité de 1′Antibiogramme de la Société Française de Microbiologie (CA-SFM). (Members of the SFM Antibiogram Committee, R. Int. J. Antimicrob. Agents 2003, 21, 364). Briefly, the Minimal Inhibitory Concentrations (MICs) were determined with an inoculum of 10^5 CFU in 200 μL of MH broth containing two-fold serial dilutions of each drug. […] To determine all MICs, the measurements were independently repeated in triplicate.
The compound of formula (Ia) according to the invention was tested against clinical isolates Gram-bacteria (P. aeruginosa, E. coli) and Gram+ bacteria (S. aureus, E. faecalis). Minimum inhibitory concentrations (MIC) were tentatively determined and compared to known antibiotic tetracyclines (doxycycline, demeclocycline, chlortetracycline) and to the compound of formula (B) disclosed in Example 1 of the present application. The test was reproduced twice and the average MIC were calculated.
as §1, §2

The subject of data set [3] is microglia cells (TNF α release under LPS). The data set is described as follows: Anti-inflammatory effect in microglia, TNF α release inhibition under LPS exposure. It is filed as cell-based. As to conditions: for Anti inflammatory effects (IC 50 in μM): TNF α release inhibition under LPS exposure, determined graphically. Here is the method: Microglia is in charge of the protection of the neurons. However, under stress conditions, microglia cells are responsible of inflammatory phenomena, leading eventually to the death of the neurons. The anti-inflammatory effects of 5 μM and 20 μM of compound of formula (B) presented in Example 1, of 5 μM and 20 μM of compound of formula (Ia) according to the present invention and of 50 μM of doxycycline (DOX) were evaluated, compared to the effect of 2.5 μM of dexamethasone (DEX). Microglia is in charge of the protection of the neurons. However, under stress conditions, microglia cells are responsible of inflammatory phenomena, leading eventually to the death of the neurons. The anti-inflammatory effects of 10 μM and 20 μM of compound of formula (C) (“10 μM (C)” and “20 μM (C)”) and of 10 μM and 20 μM of compound of formula (Ia) according to the present invention (“10 μM (Ia)” and “20 μM (Ia)”) were evaluated, compared to the effect of 2.5 μM of dexamethasone (“DEX”). The properties of tetracycline derivatives, including the compound of formula (Ia) according to the present invention, were compared regarding the neuroprotection, anti-inflammatory effects, anti-aggregant activity, and antibiotic activity. The properties were evaluated as described herein above. EC50s, IC50s determined graphically, *Rescue of dopamine neurons from spontaneous oxidative stress; ** TNF α release inhibition under LPS exposure, ^#Weak antibiotic activity on only 1 of the 3 bacterial strains (i.e. S aureus). ##Strong antibiotic activity on all 3 bacterial strains. ^###Significant antibiotic activity on two bacterial strains.

For data set [4], the system named is formalin-induced pain behavior. Briefly: Formalin-induced nociceptive pain test. It is filed as in vivo, C57/BL6 mice. As to conditions: for pain-related responses in the formalin test (overall): mice; for sex dependence of analgesic response: single injection, (C) 10 mg/kg, (Ia) 40 mg/kg, male vs female mice, phase 2. Here is the method: The analgesic effects of the compound of formula (C) described in Example 6 (administered at doses of 5 mg/kg of animal, 10 mg/kg of animal and 20 mg/kg of animal) and the compound of formula (Ia) according to the present invention (administered at doses of 10 mg/kg of animal, 20 mg/kg of animal, and 40 mg/kg of animal) were tested using the formalin-induced nociceptive pain model (as disclosed in the publication Lopes DM, Cater HL, Thakur M et al. “A refinement to the formalin test in mice [version 2; peer review: 2 approved]” F1000Research 2019, 8:891).
To test the anti-pain effects of compounds (Ia) and (C) according to the present invention, a formalin pain test was performed, which consists in subcutaneously injecting 50 μl of a 5.0% formalin solution into the right hind paw of adult C57/BL6 mice (Taylor and Basbaum, J Pain, 2000) before scoring pain behavior. The intensity of pain was estimated by recording the cumulative time (sec) during which animals develop a licking/bitting behavior in response to formalin injection. This response is divided into a transient early (Phase I) phase followed by a more prolonged late (Phase II) phase. Pain scoring is performed by experimenters blinded to test treatments using a video recording of formalin-induced pain behavior.

The nature of data set [5]: Brain penetration after single subcutaneous injection. The data set is classed as in vivo. As to conditions: mouse, brain and serum, sc; 40 mg/kg single subcutaneous injection, Swiss mice, 30 min to 24 h, n=3; read-out: brain-to-plasma ratio calculated from the area under the concentration time curves. Here is the method:
Adult Swiss mice received a single subcutaneous injection of 40 mg/kg of the compound of formula (Ia) according to the present invention, the compound of formula (C), or doxycycline diluted in saline with 5% DMSO and 5% Tween 80 (doxycycline was used as a reference tetracycline). The mice were sacrificed 30 min, 1 h, 8 h, and 24 h after treatment. After sacrifice, brain and serum samples were collected and processed at each time point for tetracycline dosage, using an UHPLC system coupled with a triple quadrupole mass spectrometer LCMS-8030 (Shimadzu Corporation, Kyoto, Japan).

Setting [6] is: 10 μM and 20 μM, compared to dexamethasone 2.5 μM.

“Also recorded” adds a separate entry of the source.

Data on two compounds can be found in US20260021119A1, “TETRACYCLINE DERIVATIVES” (ICM (INSTITUT DU CERVEAU ET DE LA MOELLE ÉPINIÈRE), priority 2022, published 2026).

Take `NC(=O)C1=C(O)CC2CC3C(=C(O)C2C1=O)C(=O)c1c(O)ccc(Cl)c1[C@H]3O` (some centres unmarked) [Compound of formula (C)]: the EC50 in data set [1] was 0.81 µM. Further, the Antibiotic activity entry in data set [2] (summary over bacterial strains) is “low^#”. The “anti-inflammatory effect (LPS)” value in data set [3] (setting [6]) is reported as “unable to counteract the inflammatory process”. In addition, in data set [3], the “Anti inflammatory effects (IC 50 in μM)” value was “no”. Moreover, the “reduction of nociceptive pain, phase 1 and 2” value in data set [4] (5 mg/kg, sub-chronic regimen (6 subcutaneous injections), male adult C57/BL6 mice, not different from morphine 10 mg/kg) is given as “highly effective”. In data set [4], the “pain-related responses in the formalin test (overall)” value is given as “reduce pain-related responses; also recorded: showed anti-pain effects” and the “sex dependence of analgesic response” value is reported as “male mice exhibited a better analgesic response”. Also, in data set [4] (single injection 10 mg/kg prior to formalin, not different from morphine 10 mg/kg), the “anti-nociceptive effects, phases 1 and 2” value is given as “robust anti-nociceptive effects”. In addition, the Kp in data set [5] is 0.27 ± 0.13.

As to `C[C@H]1c2cccc(O)c2C(=O)C2=C(O)C3C(=O)C(C(N)=O)=C(O)C[C@@H]3[C@@H](O)[C@@H]21` (stereo partly drawn) [Compound of formula (Ia), (4aS,5R,5aR,6R)-3,5,10,12-tetrahydroxy-6-methyl-1,11-dioxo-1,4,4a,5,5a,6,11,12a-octahydrotetracene-2-carboxamide], in data set [1] (3 μM and 5 μM, compared to apotransferrin 100 μg/mL), the neuroprotective effect entry is given as “highly protective”. For the same compound, in data set [1], the EC50 was determined as 1.58 µM. In addition, the “activity against Gram+ and Gram− bacteria” value in data set [2] is listed as “did not show any activity”. Moreover, the “anti-inflammatory effect (LPS)” value in data set [3] (5 μM and 20 μM, superior to doxycycline 50 μM and compound of formula (B)) was “counteracts inflammatory process”. Moreover, the “anti-inflammatory effect (LPS)” value in data set [3] (setting [6]) is reported as “counteracts inflammatory process”. The “Anti inflammatory effects (IC 50 in μM)” value in data set [3] is on record as “yes”. Moreover, in data set [4] (between 20 and 40 mg/kg, sub-chronic regimen, subcutaneous, male adult C57/BL6 mice), the “analgesic effects, phases 1 and 2” value is given as “exerted analgesic effects”. Moreover, in data set [4], the “pain-related responses in the formalin test (overall)” value was “reduce pain-related responses; also recorded: showed anti-pain effects” and the “sex dependence of analgesic response” value is “females responded more effectively”. In addition, the “anti-nociceptive effects, both phases” value in data set [4] (single injection 40 mg/kg prior to formalin) was “exerted anti-nociceptive effects”. Moreover, the Kp in data set [5] is 0.21 ± 0.05.
